From paper PMC4724694 (Acta Pharmaceutica Sinica. B, 2016)

Target: T1, 5-LOX (Rattus norvegicus, UniProt P12527)
T1 sequence (P12527 1-673): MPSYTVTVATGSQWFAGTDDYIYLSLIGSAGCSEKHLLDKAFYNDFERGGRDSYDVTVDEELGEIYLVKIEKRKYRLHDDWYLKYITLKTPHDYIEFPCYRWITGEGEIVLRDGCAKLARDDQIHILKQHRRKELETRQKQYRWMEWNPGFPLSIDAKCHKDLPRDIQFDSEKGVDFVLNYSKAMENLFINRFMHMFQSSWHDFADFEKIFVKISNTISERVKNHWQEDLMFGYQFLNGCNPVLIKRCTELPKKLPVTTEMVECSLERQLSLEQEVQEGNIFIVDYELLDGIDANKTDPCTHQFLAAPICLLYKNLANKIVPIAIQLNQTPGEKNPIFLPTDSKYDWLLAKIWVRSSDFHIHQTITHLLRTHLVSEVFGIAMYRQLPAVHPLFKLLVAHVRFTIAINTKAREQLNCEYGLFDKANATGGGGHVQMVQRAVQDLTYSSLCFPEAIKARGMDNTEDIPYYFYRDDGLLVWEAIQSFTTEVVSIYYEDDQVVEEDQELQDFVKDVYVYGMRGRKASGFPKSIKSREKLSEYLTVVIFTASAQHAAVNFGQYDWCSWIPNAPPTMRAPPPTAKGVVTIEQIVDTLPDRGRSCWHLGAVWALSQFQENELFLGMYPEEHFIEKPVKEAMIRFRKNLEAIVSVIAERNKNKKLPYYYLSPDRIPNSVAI
Assay: Inhibition of 5-LOX product synthesis
Assay type: cell-based
Details: PMNL, read-out: Inhibition at 5 μmol/L (%)

Row | Compound | inhibition at 5 µM [%]
1 | CC(C)Cc1ccc(-c2cc(C(=O)Nc3cc(C(C)(C)C)c(O)c(C(C)(C)C)c3)nn2-c2ccc(S(C)(=O)=O)cc2)cc1 [5d, N-(3,5-di-tert-butyl-4-hydroxyphenyl)-1-(4-methylsulfonylphenyl)-5-p-iso-butylphenyl-1H-pyrazole-3-carboxamide] | 60.2
2 | Cc1ccc(-c2cc(C(=O)Nc3cc(C(C)(C)C)c(O)c(C(C)(C)C)c3)nn2-c2ccc(S(C)(=O)=O)cc2)cc1 [5b, N-(3,5-di-tert-butyl-4-hydroxyphenyl)-1-(4-methylsulfonylphenyl)-5-p-tolyl-1H-pyrazole-3-carboxamide] | 62.8
3 | CC(C)(C)c1cc(NC(=O)c2cc(-c3ccccc3)n(-c3ccc(S(N)(=O)=O)cc3)n2)cc(C(C)(C)C)c1O [4a, N-(3,5-di-tert-butyl-4-hydroxyphenyl)-1-(4-aminosulfonyl-phenyl)-5-phenyl-1H-pyrazole-3-carboxamide] | 55.7
4 | CC(C)(C)c1cc(NC(=O)c2cc(-c3ccc4ccccc4c3)n(-c3ccc(S(C)(=O)=O)cc3)n2)cc(C(C)(C)C)c1O [5g, N-(3,5-di-tert-butyl-4-hydroxyphenyl)-1-(4-methylsulfonylphenyl)-5-naphth-2-yl-1H-pyrazole-3-carboxamide] | 51.7
5 | CC(C)(C)c1cc(NC(=O)c2cc(-c3ccccc3)n(-c3ccc(F)cc3)n2)cc(C(C)(C)C)c1O [6a, N-(3,5-di-tert-butyl-4-hydroxyphenyl)-1-(4-fluorophenyl)-5-phenyl-1H-pyrazole-3-carboxamide] | 56.8
6 | CC(C)(C)c1cc(NC(=O)c2cc(C3CCCCC3)n(-c3ccc(S(C)(=O)=O)cc3)n2)cc(C(C)(C)C)c1O [5j, N-(3,5-di-tert-butyl-4-hydroxyphenyl)-1-(4-methylsulfonylphenyl)-5-cyclo-hexyl-1H-pyrazole-3-carboxamide] | 57.3
7 | CC(C)Cc1ccc(-c2cc(C(=O)Nc3cc(C(C)(C)C)c(O)c(C(C)(C)C)c3)nn2-c2ccc(S(N)(=O)=O)cc2)cc1 [4d, N-(3,5-di-tert-butyl-4-hydroxyphenyl)-1-(4-aminosulfonylphenyl)-5-p-iso-butylphenyl-1H-pyrazole-3-carboxamide] | 59
8 | CC(C)(C)c1cc(NC(=O)c2cc(-c3ccccc3)n(-c3ccc(S(C)(=O)=O)cc3)n2)cc(C(C)(C)C)c1O [5a, N-(3,5-di-tert-butyl-4-hydroxyphenyl)-1-(4-methylsulfonylphenyl)-5-phenyl-1H-pyrazole-3-carboxamide] | 41.9
9 | CC(C)(C)c1cc(NC(=O)c2cc(-c3ccc4c(c3)OCCO4)n(-c3ccc(S(N)(=O)=O)cc3)n2)cc(C(C)(C)C)c1O [4f, N-(3,5-di-tert-butyl-4-hydroxyphenyl)-5-(2,3-dihydrobenzo [1, 4]dioxin-7-yl)-1-(4-aminosulfonylphenyl)-1H-pyrazole-3-carboxamide] | 50.7
10 | COc1ccc(-c2cc(C(=O)Nc3cc(C(C)(C)C)c(O)c(C(C)(C)C)c3)nn2-c2ccc(S(C)(=O)=O)cc2)cc1 [5c, N-(3,5-di-tert-butyl-4-hydroxyphenyl)-1-(4-methylsulfonylphenyl)-5-p-methoxyphenyl-1H-pyrazole-3-carboxamide] | 35.6
11 | CC(C)(C)c1cc(NC(=O)c2cc(-c3ccc(F)cc3)n(-c3ccc(S(N)(=O)=O)cc3)n2)cc(C(C)(C)C)c1O [4h, N-(3,5-di-tert-butyl-4-hydroxyphenyl)-1-(4-aminosulfonylphenyl)-5-p-fluorophenyl-1H-pyrazole-3-carboxamide] | 39.3

Same assay, conditions: rat PMNLs, 5 μmol/L, mean of three determinations

Row | Compound | Inhibition at 5 μmol/L (%)
12 | CC(C)(C)c1cc(NC(=O)c2cc(-c3ccc(C(F)(F)F)cc3)n(-c3ccc(S(N)(=O)=O)cc3)n2)cc(C(C)(C)C)c1O [4i, N-(3,5-di-tert-butyl-4-hydroxyphenyl)-1-(4-aminosulfonylphenyl)-5-p-trifluoromethylphenyl-1H-pyrazole-3-carboxamide] | 61.9
